Test results: ChEMBL document CHEMBL1151778, “Synthesis of macrocyclic trypanosomal cysteine protease inhibitors” (Bioorg Med Chem Lett, 2008)

Tests used:
[1] = biological target: Cruzipain (Trypanosoma cruzi, UniProt P25779); experiment: Inhibition of Trypanosoma cruzi recombinant cruzain by fluorescence technique
[2] = biological target: Rhodesain (Trypanosoma brucei rhodesiense, UniProt Q95PM0); experiment: Inhibition of Trypanosoma brucei rhodesiense recombinant rhodesain by fluorescence technique
Chain of Rhodesain (Q95PM0 whole entry): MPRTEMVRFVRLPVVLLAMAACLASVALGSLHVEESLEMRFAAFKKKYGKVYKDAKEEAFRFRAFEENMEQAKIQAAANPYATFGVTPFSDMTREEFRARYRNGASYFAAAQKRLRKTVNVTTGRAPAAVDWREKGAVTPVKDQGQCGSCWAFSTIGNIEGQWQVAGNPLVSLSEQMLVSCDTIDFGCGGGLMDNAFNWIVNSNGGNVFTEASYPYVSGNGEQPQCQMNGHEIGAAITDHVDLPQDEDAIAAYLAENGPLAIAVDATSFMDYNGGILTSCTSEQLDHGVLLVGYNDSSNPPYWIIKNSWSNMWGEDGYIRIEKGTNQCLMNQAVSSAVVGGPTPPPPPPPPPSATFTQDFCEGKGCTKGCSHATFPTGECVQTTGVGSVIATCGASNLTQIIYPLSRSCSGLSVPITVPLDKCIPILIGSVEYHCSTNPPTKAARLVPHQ

Chain of Cruzipain (P25779 whole entry): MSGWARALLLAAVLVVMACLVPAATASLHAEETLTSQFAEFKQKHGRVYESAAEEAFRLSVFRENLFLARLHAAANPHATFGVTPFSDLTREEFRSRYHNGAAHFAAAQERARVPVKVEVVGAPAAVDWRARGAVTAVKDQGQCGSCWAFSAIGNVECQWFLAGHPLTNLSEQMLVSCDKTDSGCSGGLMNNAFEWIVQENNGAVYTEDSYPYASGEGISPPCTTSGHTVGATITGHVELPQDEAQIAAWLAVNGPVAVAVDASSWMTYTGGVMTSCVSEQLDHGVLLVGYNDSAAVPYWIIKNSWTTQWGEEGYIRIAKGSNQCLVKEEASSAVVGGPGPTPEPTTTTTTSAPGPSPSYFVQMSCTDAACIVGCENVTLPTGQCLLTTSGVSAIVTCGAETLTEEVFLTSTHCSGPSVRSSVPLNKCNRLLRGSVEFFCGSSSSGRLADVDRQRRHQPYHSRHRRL

SMILES: CC(C)C[C@@H]1N[C@@H](C(=O)Nc2ccccc2)CCCC[C@@H](/C=C/S(=O)(=O)c2ccccc2)NC1=O
- IC50 [1]: > 10 µM
- IC50 [2]: 10 µM

SMILES: CC(C)C[C@@H]1N[C@@H](C(=O)Nc2ccccc2)CCCCC[C@@H](/C=C/S(=O)(=O)c2ccccc2)NC1=O
- IC50 [1]: 2 µM
- IC50 [2]: 6 µM
